# Experimental data from patent US20120165403A1, “METHODS OF INHIBITING THE ACTIVITY OF HSP90 AND/OR ARYL HYDROCARBON RECEPTOR” (UNIVERSITY OF ROCHESTER, priority 2004, published 2012).
# Tested on: mouse AhR
# Experiment: Competitive binding by velocity sedimentation on sucrose density gradients
# Description: Mouse hepatoma cells, Hepa1c1c7 (Hepa), and BP^rCl cells were maintained in modified Eagle's medium (Sigma) supplemented with 10% heat-inactivated fetal bovine serum, sodium pyruvate, L-glutamine, sodium bicarbonate, and Gentamicin (MEM+), at 37° C. in a humid atmosphere with 5% CO2. BP^rCl cells are a derivative of Hepa1c1c7 cells that lack ARNT protein expression and function (Probst et al., Mol. Pharmacol. 44:511-518 (1993), which is hereby incorporated by reference in its entirety). Upon reaching 90% confluency, cells were harvested and homogenized in HEDG buffer (25 mM HEPES, 1.5 mM Na2EDTA, 1 mM dithiothreitol, 10% (v/v) glycerol, pH 7.6) containing protease inhibitors (Roche Applied Science complete mini cocktail tablet, Indianapolis, Ind.). Both Hepa and BP^rC1 cytosols were prepared by centrifugation of the homogenate at 100,000 g for 45 min.
# Competitive binding of EGCG was analyzed by velocity sedimentation on sucrose gradients in a vertical tube rotor (Tsui et al., Can. J. Physiol. Pharmacol 59:927-931 (1981); Jensen et al., Toxicol. Sci. 64:41-56 (2001), which are hereby incorporated by reference in their entirety). Hepa cytosol (100 μl of 2.5 mg/ml) or BP^rCl cytosol was incubated for two hours at room temperature with either 3 nM ^3H-TCDD, 0.5 nM ^3H-TCDD, or 5 nM ^3H-BNF, in the presence of DMSO, 150-fold excess TCDF, 1 μM 3M4NF, or EGCG. Cytosols were washed with charcoal-dextran (1 mg charcoal/mg protein) in HEDG, and applied to a 10-30% (w/v) sucrose gradient in Beckman Quick-Seal centrifuge tubes (Beckman, Palo Alto, Calif.). [Methyl-^14C]-BSA was used as an internal sedimentation marker. The gradients were centrifuged for 2 h at 372,000×g in a Beckman VTI-80 rotor. Fractions were collected from the top at a rate of 1 ml/min, 0.2 ml/fraction. For competitive binding assays, fractions were assayed for radioactivity with ScintiVerse (Fisher Scientific, Fair Lawn, N.J.). […] For AhR and hsp90 density analysis, protein contained within an aliquot (200 of each fraction was separated by SDS-PAGE (7.5% acrylamide resolving gel) and transferred to PVDF membranes. Membranes were probed with antibodies recognizing AhR (Biomol) or hsp90 (Stressgen, Victoria, BC Canada). A crude estimate of the sedimentation coefficient for the EGCG shifted AhR complex was calculated by the method of Martin and Ames (Martin et al., J. Biol. Chem. 236:1372-1379 (1961), which is hereby incorporated by reference in its entirety) relative to the ^14C-BSA (4.4S) standard.
compound,measurement,setting,value
"O=C(O[C@@H]1Cc2c(O)cc(O)cc2O[C@@H]1c1cc(O)c(O)c(O)c1)c1cc(O)c(O)c(O)c1 [EGCG, epigallocatechin gallate]",displacement of TCDD from the AhR ligand-binding site,"ARNT deficient BPrC1 cytosol, lower concentrations of 3H-TCDD",incapable of displacing TCDD
same,inhibition of TCDD binding after pretreatment,BPrC1 cytosol pretreated 30 minutes with EGCG,failed to inhibit TCDD binding
same,competition with 3H-TCDD for specific binding to the AhR (9S peak),"Hepa cytosol, 3 nM 3H-TCDD, 2 h, room temperature",failed to attenuate the ^3H-TCDD 9S signal
same,competition with 3H-BNF for binding to the AhR,"Hepa cytosol, 5 nM 3H-BNF, 2 h, room temperature",failed to inhibit BNF binding
